Measured values: patent US20100048638A1, “HEPARAN SULFATE INHIBITORS” (ZACHARON PHARMACEUTICALS, INC., priority 2008, published 2010)

Assays:
[1] = system: cultured primary human fibroblast from MPS patients; assay: In vitro MPS model: accumulation of GAG fragments in fibroblasts; assay type: cell-based
Description: Substrate reduction therapy (SRT) is validated for MPS. The non-specific inhibitor of sulfation, sodium chlorate is used herein for such validation. […] In certain instances, in vitro MPS models used herein are based on measuring the accumulation of GAG fragments in cultured primary human fibroblast from MPS patients. In some instances, the GAGs that accumulate in MPS patients are much smaller than normal tissue GAGs and they lack a core protein on their reducing termini. Based on these features the in vitro MPS model used in certain instances herein is based on a method of tagging reducing ends of the GAGs with a detectable label and analyzing (i.e., detecting and/or measuring) the detectable labels using a device suitable for detecting the label (e.g., an HPLC with a fluorimeter).

[2] = system: FGF2 binding to heparan sulfate in human cervical cancer cells (HeLa); assay: FGF2 binding to heparan sulfate in HeLa cells, flow cytometry; assay type: cell-based; conditions: various concentrations
Description: (§1) FIG. 2 illustrates the impact of 4-(4-(3,4-dimethoxyphenyl)-6-phenylpyrimidin-2-yl)morpholine on the ability of FGF2 to bind to heparan sulfate in human cervical cancer cells (HeLa). FGF2 binding to heparan sulfate is measured by culturing HeLa cells in the presence of the heparan sulfate modulator. After 2 days of growth, the cells are released with 5 mM EDTA and probed with biotinylated FGF2 for 30 minutes on ice. After washing unbound FGF2, bound FGF2 is detected with streptavidin-Cy5-PE. After washing to remove unbound streptavidin-Cy5-PE, the bound probe is quantified using a flow cytometry. The heparan sulfate inhibitors are tested on at least three independent occasions, in duplicate over a dose range. Heparan sulfate specificity is determined by probing with lectins to other glycan classes (chondroitin sulfate, O-linked, N-linked, etc.). FIG. 3 illustrates the impact of 4-(4-(3,4-dimethoxyphenyl)-6-phenylpyrimidin-2-yl)morpholine on the sulfation of heparan sulfate found in human cervical cancer cells (HeLa). The sulfation of heparan sulfate is determined by culturing HeLa cells in the presence of the heparan sulfate modulator. Heparan sulfate is isolated from treated and untreated cells by lysing the cells in 0.1 N NaOH. After neutralization, the cell lysate is treated with pronase to degrade the core proteins. Subsequently, the heparan sulfate is purified on diethylaminoethyl (DEAE) resin, eluted with 1.0 M NaCl, desalted using gel filtration and dried. To characterize the composition of heparan sulfate produced in the presence of the heparan sulfate modulator, the isolate heparan sulfate is digested to disaccharides using a blend of heparin lyase I, II, and III (from flavobacterium heparinum). The disaccharides are quantified by HPLC using a propac PA1 column using known heparan sulfate disaccharides as standards. Specifically, FIG. 3A illustrates the impact of 4-(4-(3,4-dimethoxyphenyl)-6-phenylpyrimidin-2-yl)morpholine on the amount of specific disaccharide units; and FIG. 3B illustrates the impact of 4-(4-(3,4-dimethoxyphenyl)-6-phenylpyrimidin-2-yl)morpholine on the amount of specific glucosamine and uronic acid modifications.
as §1, with “FIG. 4” for “FIG. 2”, “of 7-((3-chlorophenyl)(pyridin-2-ylamino)methyl)-2-methylquinolin-8-ol” for “of 4-(4-(3,4-dimethoxyphenyl)-6-phenylpyrimidin-2-yl)morpholine”, “FIG. 5” for “FIG. 3”, “heparinum). […]” for “heparinum). The disaccharides are quantified by HPLC using a propac PA1 column using known heparan sulfate disaccharides as standards. Specifically, FIG. 3A illustrates the impact of 4-(4-(3,4-dimethoxyphenyl)-6-phenylpyrimidin-2-yl)morpholine on the amount of specific disaccharide units; and FIG. 3B illustrates the impact of 4-(4-(3,4-dimethoxyphenyl)-6-phenylpyrimidin-2-yl)morpholine on the amount of specific glucosamine and uronic acid modifications.”

heparan sulfate = assay: Heparan sulfate structure in liver and tumor after sacrifice, SKOV3 model; assay type: in vivo, mice
Description: (§2) After sacrifice, the liver and tumor were analyzed for changes in the structure of heparan sulfate.

SKOV3 cells = assay: Human ovarian cancer model, SKOV3 subcutaneous tumors in female nude mice; assay type: in vivo; conditions: 1, 3 and 10 mg/kg/day, two IP injections daily
Description: Compound 9 was tested for anti-cancer activity in a Human ovarian cancer model. Briefly, 5 million SKOV3 cells were injected in 100 ul mixed with matrigel subcutaneously into female nude mice. The tumors were allowed to grow to 0.1 cm^3 then the mice were randomized into four groups (Vehicle, 1, 3, and 10 mg/kg/day). Each group received the indicated daily dose divided into two IP injections. Vehicle alone received the formulation only.

[3] = system: 6-O sulfation of heparan sulfate; assay: Change in the structure (sulfation) of heparan sulfate in cultured human cells; assay type: cell-based; conditions: FIG. 21A
Description: FIG. 2 illustrates the impact of 4-(4-(3,4-dimethoxyphenyl)-6-phenylpyrimidin-2-yl)morpholine on the ability of FGF2 to bind to heparan sulfate in human cervical cancer cells (HeLa). FGF2 binding to heparan sulfate is measured by culturing HeLa cells in the presence of the heparan sulfate modulator. After 2 days of growth, the cells are released with 5 mM EDTA and probed with biotinylated FGF2 for 30 minutes on ice. After washing unbound FGF2, bound FGF2 is detected with streptavidin-Cy5-PE. After washing to remove unbound streptavidin-Cy5-PE, the bound probe is quantified using a flow cytometry. The heparan sulfate inhibitors are tested on at least three independent occasions, in duplicate over a dose range. Heparan sulfate specificity is determined by probing with lectins to other glycan classes (chondroitin sulfate, O-linked, N-linked, etc.). FIG. 3 illustrates the impact of 4-(4-(3,4-dimethoxyphenyl)-6-phenylpyrimidin-2-yl)morpholine on the sulfation of heparan sulfate found in human cervical cancer cells (HeLa). The sulfation of heparan sulfate is determined by culturing HeLa cells in the presence of the heparan sulfate modulator. […] The disaccharides are quantified by HPLC using a propac PA1 column using known heparan sulfate disaccharides as standards. […]
as §2

[4] = system: synthesis of PAPs / heparan sulfate sulfation; conditions: cited from earlier work
[5] = in vitro model of MPS IIIA, human MPS IIIA fibroblasts

| Structure (SMILES) | inhibition of heparan sulfate biosynthesis ([1]; human MPS IIIA fibroblasts) | GAG accumulation [1, 5] | inhibition of FGF-2 binding to heparan sulfate [2] | also measured |
| --- | --- | --- | --- | --- |
| COc1ccc(-c2cc(-c3ccccc3)nc(N3CCOCC3)n2)cc1OC [compound 1, 4-(4-(3,4-dimethoxyphenyl)-6-phenylpyrimidin-2-yl)morpholine] | inhibition of heparan sulfate biosynthesis | reduce GAG accumulation | inhibition of FGF-2 binding | – |
| Cc1ccc2ccc(C(Nc3ccccn3)c3cccc(Cl)c3)c(O)c2n1 (stereo not drawn) [compound 2, 7-((3-chlorophenyl)(pyridin-2-ylamino)methyl)-2-methylquinolin-8-ol] | – | – | inhibition of FGF-2 binding | – |
| Cc1ccc2ccc(C(Nc3ccccn3)c3ccccc3F)c(O)c2n1 (stereo not drawn) [compound 3, 7-((2-fluorophenyl)(pyridin-2-ylamino)methyl)-2-methylquinolin-8-ol] | – | – | inhibition of FGF-2 binding | – |
| CC(C)C(=O)NC(c1cccs1)c1cc([N+](=O)[O-])c2cccnc2c1O (stereo not drawn) [compound 5, 7-((thiophen-2-yl)(isobutoylamino)methyl)-5-nitroquinolin-8-ol] | inhibition of heparan sulfate biosynthesis | reduce GAG accumulation | inhibition of FGF-2 binding | – |
| CCc1cc(=O)oc2cc(Oc3ccc([N+](=O)[O-])cc3C(F)(F)F)ccc12 [compound 6, 4-ethyl-7-(4-nitro-2-(trifluoromethyl)phenoxy)-2H-chromen-2-one] | – | – | inhibition of FGF-2 binding | – |
| CC(C)(C)C1CCc2c(sc3nc(C(F)(F)F)[nH]c(=O)c23)C1 (stereo not drawn) [compound 7] | inhibition of heparan sulfate biosynthesis | reduce GAG accumulation | inhibition of FGF-2 binding | – |
| O=C(NC(=S)N(Cc1ccccc1)Cc1ccccc1)c1cccc(Cl)c1 [compound 8] | inhibition of heparan sulfate biosynthesis | reduce GAG accumulation | inhibition of FGF-2 binding | – |
| C[S+]([O-])c1ccc(-c2nc(-c3ccc(F)cc3)c(-c3ccncc3)[nH]2)cc1 (stereo not drawn) [compound 9] | – | – | – | heparan sulfate biosynthesis in liver (heparan sulfate; liver of treated animals, after sacrifice, 1, 3 and 10 mg/kg/day IP): altered in the liver of treated animals in a dose dependent manner; changes in the structure of heparan sulfate in tumor (heparan sulfate; small tumor remaining in treated animals, after sacrifice): No changes were detected; tumor growth (SKOV3 cells): blocked tumor growth at all doses tested; 6-O sulfation of heparan sulfate [3]: inhibits the 6-O sulfation of heparan sulfate |
| [Na+].[O-][Cl+2]([O-])[O-] [sodium chlorate, reference compound] | – | reduction of GAG accumulation | – | synthesis of PAPs (sulfate donor) ([4]; 30-60 mM): inhibits the synthesis of PAPs; sulfation of heparan sulfate produced by cells ([4]; cells grown in the presence of the substance): reduced sulfation; GAG accumulation ([1]; in vitro model of MPS I): reduction of GAG accumulation; GAG accumulation ([1]; in vitro model of MPS II): reduction of GAG accumulation |
